{"source": "patent US7855232B2", "about": "“Organoselenium compound for cancer chemoprevention” (LKT Laboratories, Inc., priority 2001, dated 2010)", "key": {"[1]": {"test_system": "Glutathione S-Transferase", "test": "Glutathione S-transferase (GST) activity in tissue cytosol of treated mice, CDNB substrate", "type": "in vivo, Female A/J mice", "conditions": "for Ratio Test/con (GST): gavage; for GST act.: gavage in corn oil", "protocol": "The activity of cytosolic was assayed according to the method of Habig et al. using 1-chloro-2,4-dinitrobenzene (CDNB) as the substrate. Habig et al, J. Biol. Chem. 249:7130-7139 (1974). The complete solution contains, in a total volume of 2.0 mL, 0.1 M phosphate buffer, pH 6.5, 5 mM glutathione, 1 mM CDNB, and 20 μL of the cytosol. The reaction was monitored at 340 nm in a Beckman Model DU65 UV-VIS spectrophotometer. Assays were performed at 30° C. Complete assay mixture without the cytosolic enzyme was used as the reference blank. Data as analyzed by the Student's “t” test and P values were obtained in comparison to the control."}, "[2]": {"test_system": "UDP-Glucuronosyltransferase (UDP-GT)", "test": "UDP-glucuronosyltransferase (UDP-GT) activity in liver microsomes of treated mice, o-aminophenol substrate", "type": "in vivo, Female A/J mice", "conditions": "for Ratio Test/con (UDP-GT): gavage; for UDP-GT activity (column head prints GSH conc.): gavage in corn oil", "protocol": "Microsomal samples were assayed for enzymatic conjugation by modifying the procedure of Zakim et al., Methods of Biochemical Analysis, ed. David Glick, 21:1-37, (1973). using o-aminophenol as the substrate. The complete assay solution contains, in a total volume of 500 μl, 0.25 M phosphate buffer (pH 7.6), 0.002 M o-aminophenol, 0.05 M UDPGA, 0.125 M magnesium chloride and 100 μl microsomes. The mixture was incubated for 30 minutes. Reactions were stopped by the addition of 500 μl of TCA-sodium phosphate reagent. The precipitated protein was removed, 100 μl of 0.05% sodium nitrite was added to 950 μl of the supernatent solution and allowed to stand for 5 minutes. 100 μl of 0.5% ammonium sulfamate was added, after 5 minutes. 100 μl of 0.12% N-(-1-naphthyl)ethylenediamine dihydrochloride was added and incubated for 2 hours in the dark; and the difference in the optical density between the blanks and the samples were recorded at 555 nm in a Beckman model DU65 UV-VIS spectrophotometer. The UDP-GT activity was calculated using the extinction coefficient 29 mM-1 cm-1 for the coupled product."}, "aberrant crypts (AC)": {"test_system": "aberrant crypts (AC)", "test": "Inhibition of DMH-induced aberrant crypt (AC) formation in colon", "type": "in vivo, Female CF1 mice", "conditions": "with DMH", "text": "Precancerous lesions called aberrant crypts (AC) are used as a marker for colon carcinogenesis. Mice and rats, when exposed to colon-specific carcinogen, develop preneoplastic changes in colon crypts which leads to malignancy through dysplasia-carcinoma sequence. […] McLellan et al., Cancer Res. 48:6183-6186 (1988); McLellan et al., Cancer Res. 48:2311-2315 (1988).\nThe effect of colon-specific carcinogenesis is typically seen in the induction of AC formation in less than two weeks. AC formation is dose dependent and can be quantitated without elaborate instrumentation. In view of the short time-frame required to get quantifiable results, this bio-assay is a useful prescreening tool for the evaluation of chemopreventative efficacy of compounds that are effective against colon cancer. The protocol for aberrant crypts is shown below:\nFemale CF1 mice, 3 weeks of age, were purchased from Harlan Sprague-Dawley, Indianapolis, 1N. They were housed, 5 mice per cage, in temperature and humidity-controlled animal quarters with 12 hours light/dark cycle and fed AIN 76A semipurified diet until the ent of the experiment. Water was given ad libitim. The animals were separated into experimental and control groups. The test compounds 0.03-0.04 mmol/kg body weight dissolved in 0.3 mL corn oil, were given by gavage one per day for 8 days. One hour after the inhibitors administration on the 4th and 8th days, 0.4 mg of DMH in 0.2 mL of 0.001 M EDTA, adjusted to pH 6.5 with sodium bicarbonate, was given by gavage. Starting on the 9th day, the inhibitors were given once every other day for an additional 3 weeks. This regimen of inhibitor administration ensures the coverage both the initiation and post initiation periods of carcinogen exposure.\nAt the end of the 3 week period, the animals were sacrificed and the colons removed. The starting and terminating weights of the animals were recorded. The procedures for the determination of aberrant crypts were those reported by Bird (Cancer Letters 37:147-151 (1987)). The mouse colon including the caecum was removed, rinsed with PBS, and opened longitudinally. The colon contents was removed by washing with PBS. The colon was spread mucosal side up on a piece of filter paper and fixed in buffered formalin overnight. It was then stained with 0.2% methylene blue in PBS for 60 min. The AC foci was read under light microscope. The AC are topographically distinguished by their increased size, increased pericryptal zone, and thicker and deeply stained epithelial lining compared to normal crypts. The number of foci and AC in the colorectal and caecal parts of the colon were recorded separately. The significance of the data was determined by the analysis of variance method. The significance of the incidence of aberrant crypts bearing animals was analyzed by the X^2 test. The aberrant crypts were examined histologically to verify the dysplastic nature of the changes in animals treated with carcinogens and those treated with carcinogens and inhibitors."}, "[3]": {"conditions": "colon, dose 0.02 mmol/Kg body weight"}, "[4]": {"conditions": "colon, dose 0.04 mmol/Kg body weight"}, "[5]": {"conditions": "forestomach, dose 0.02 mmol/Kg body weight"}, "[6]": {"conditions": "forestomach, dose 0.04 mmol/Kg body weight"}, "[7]": {"conditions": "liver, dose 0.02 mmol/Kg body weight"}, "[8]": {"conditions": "liver, dose 0.04 mmol/Kg body weight"}, "[9]": {"conditions": "lung, dose 0.02 mmol/Kg body weight"}, "[10]": {"conditions": "lung, dose 0.04 mmol/Kg body weight"}, "[11]": {"conditions": "small intestinal mucosa, dose 0.02 mmol/Kg body weight"}, "[12]": {"conditions": "small intestinal mucosa, dose 0.04 mmol/Kg body weight"}}, "note": "Marks after values point to notes of the source that are not given here."}
{"smiles": "N#C[Se]Cc1ccc(C[Se]C#N)s1", "note": "[(2) TDMSC, thienyl-2,5-di-methylene selenocyanate]", "values": [{"measurement": "Ratio Test/con (GST)", "setting": "[1]; [3]", "result": 1.00}, {"measurement": "GST act.", "setting": "[1]; [3]", "result": "0.40 ± 0.04", "unit": "μmol/min mg protein"}, {"measurement": "Ratio Test/con (GST)", "setting": "[1]; [4]", "result": 1.00}, {"measurement": "GST act.", "setting": "[1]; [4]", "result": "0.40 ± 0.01", "unit": "μmol/min mg protein"}, {"measurement": "Ratio Test/con (GST)", "setting": "[1]; [5]", "result": 1.15}, {"measurement": "GST act.", "setting": "[1]; [5]", "result": "0.90 ± 0.12", "unit": "μmol/min mg protein"}, {"measurement": "Ratio Test/con (GST)", "setting": "[1]; [6]", "result": 1.15}, {"measurement": "GST act.", "setting": "[1]; [6]", "result": "0.90 ± 0.11 ^g μmol/min mg protein"}, {"measurement": "Ratio Test/con (GST)", "setting": "[1]; [7]", "result": 1.27}, {"measurement": "GST act.", "setting": "[1]; [7]", "result": "1.43 ± 0.2 ^g μmol/min mg protein"}, {"measurement": "Ratio Test/con (GST)", "setting": "[1]; [8]", "result": 1.12}, {"measurement": "GST act.", "setting": "[1]; [8]", "result": "1.26 ± 0.21", "unit": "μmol/min mg protein"}, {"measurement": "Ratio Test/con (GST)", "setting": "[1]; [9]", "result": 1.04}, {"measurement": "GST act.", "setting": "[1]; [9]", "result": "0.49 ± 0.07", "unit": "μmol/min mg protein"}, {"measurement": "Ratio Test/con (GST)", "setting": "[1]; [10]", "result": 1.15}, {"measurement": "GST act.", "setting": "[1]; [10]", "result": "0.54 ± 0.09", "unit": "μmol/min mg protein"}, {"measurement": "Ratio Test/con (GST)", "setting": "[1]; [11]", "result": 1.03}, {"measurement": "GST act.", "setting": "[1]; [11]", "result": "0.35 ± 0.01", "unit": "μmol/min mg protein"}, {"measurement": "Ratio Test/con (GST)", "setting": "[1]; [12]", "result": 1.18}, {"measurement": "GST act.", "setting": "[1]; [12]", "result": "0.40 ± 0.16", "unit": "μmol/min mg protein"}, {"measurement": "Ratio Test/con (UDP-GT)", "setting": "[2]; dose 0.02 mmol/Kg body weight", "result": 1.58}, {"measurement": "UDP-GT activity (column head prints GSH conc.)", "setting": "[2]; dose 0.02 mmol/Kg body weight", "result": "7.00 ± 1.07 ^c nmol/min/mg protein"}, {"measurement": "Ratio Test/con (UDP-GT)", "setting": "[2]; dose 0.04 mmol/Kg body weight", "result": 2.81}, {"measurement": "UDP-GT activity (column head prints GSH conc.)", "setting": "[2]; dose 0.04 mmol/Kg body weight", "result": "12.44 ± 2.31 ^c nmol/min/mg protein"}, {"measurement": "Ratio Test/con (UDP-GT)", "setting": "[2]; dose 0.04 mmol/Kg body weight, listed as TDMSC 2", "result": 3.0}, {"measurement": "ACF/Colon", "setting": "aberrant crypts (AC); low dose 0.03 mmol/kg body weight, gavage, DMH alone 1.13", "result": 0.50}, {"measurement": "AC/Foci", "setting": "aberrant crypts (AC); low dose 0.03 mmol/kg body weight, gavage, DMH alone 1.28", "result": 1.00}, {"measurement": "AC/Colon", "setting": "aberrant crypts (AC); low dose 0.03 mmol/kg body weight, gavage, DMH alone 1.44", "result": 0.50}, {"measurement": "Total ACF", "setting": "aberrant crypts (AC); low dose 0.03 mmol/kg body weight, gavage, DMH alone 18", "result": 4}, {"measurement": "Total AC", "setting": "aberrant crypts (AC); low dose 0.03 mmol/kg body weight, gavage, DMH alone 23", "result": 4}, {"measurement": "% animals", "setting": "aberrant crypts (AC); low dose 0.03 mmol/kg body weight, gavage, DMH alone 43.7", "result": 24.0, "unit": "%"}, {"measurement": "protection (inhibition of aberrant crypt formation)", "setting": "aberrant crypts (AC); low dose", "result": "more than 50%"}]}
